Experimental data as given in patent US20250313553A1, “ANNULATED 2-AMINO-3-CYANO THIOPHENES AND DERIVATIVES FOR THE TREATMENT OF CANCER” (Boehringer Ingelheim Int'l GmbH Corp., priority 2021, published 2025).
Values after ≈ are worked out from the molar mass of the structure shown. Read-outs that look alike come from different tables or passages of the source.

What was measured:
KRAS (G12D) and SOS1 = molecular target: T1, KRAS (G12D) and SOS1 (Homo sapiens, UniProt P01116, G12D); test: KRAS::SOS1 AlphaScreen binding assay, KRAS G12D
T1 construct: KRAS (G12D) 1-169, N-terminal 6His-tag; 6His (N); purchased Xtal BioStructures, Inc. (KRAS G12D); Viva Biotech Ltd (SOS1)
Protocol: (§1) Low IC50 values in this assay setting are indicative of strong inhibition of protein-protein interaction between SOS1 and KRAS:
(§2) These assays measure the inhibitory effect of compounds on KRAS mutant protein-protein interactions using the Alpha Screen technology by Perkin Elmer.
(§3) For the chosen highest assay concentration of 100 μM, 150 nL of compound solution are transferred from a 10 mM DMSO compound stock solution. A series of eleven fivefold dilutions per compound are transferred to the assay plate, compound dilutions are tested in duplicates. DMSO are added as backfill to a total volume of 150 nL.
(§4) The assays run on a fully automated robotic system in a darkened room below 100 Lux. To 150 nl of compound dilution 10 μl of a mix including KRAS mutant protein, SOS1 (final assay concentrations see above) and GDP nucleotide (Sigma G7127; final assay concentration 10 μM) in assay buffer (1×PBS, 0.1% BSA, 0.05% Tween 20) are added into columns 1-24. After 30 minutes incubation time 5 μl of Alpha Screen bead mix in assay buffer are added into columns 1-23.
(§5) Plates are kept at room temperature in a darkened incubator. After an additional 60 minutes incubation time the signal is measured in a PerkinElmer Envision HTS Multilabel Reader using the AlphaScreen specs from PerkinElmer.
(§6) IC50 values are calculated and analyzed with Boehringer Ingelheim's MEGALAB IC50 application using a 4 parametric logistic model.

KRAS (G12C) and SOS1 = molecular target: T2, KRAS (G12C) and SOS1 (Homo sapiens, UniProt P01116, C118S/C51S/C80L/G12C); test: KRAS::SOS1 AlphaScreen binding assay, KRAS G12C
T2 construct: KRAS (G12C) 1-169, N-terminal 6His-tag for purification; 6His (N, cleaved yes)
Protocol: as §1, §2, §3, §4, §5, §6

KRAS G12D Ba/F3 cells = KRAS G12D Ba/F3 cells (Homo sapiens, UniProt P01116, G12D, cells depend on it); test: Ba/F3 proliferation assay, KRAS G12D; type: cell-based; settings: 72 h, AlamarBlue, read-out: KRAS G12D Ba/F3 IC50
Protocol: (§7) To generate KRASG12-dependent Ba/F3 models, Ba/F3 cells are transduced with retroviruses containing vectors that harbor KRASG12 isoforms. Platinum-E cells (Cell Biolabs) are used for retrovirus packaging. Retrovirus is added to Ba/F3 cells. To ensure infection, 4 μg/mL polybrene is added and cells are spinfected. […] Cells with an infection efficiency of 10% to 20% are further cultivated and puromycin selection with 1 μg/mL is initiated. As a control, parental Ba/F3 cells are used to show selection status. Selection is considered successful when parental Ba/F3 cells cultures died. To evaluate the transforming potential of KRASG12 mutations, the growth medium is no longer supplemented with IL-3. Ba/F3 cells harboring the empty vector are used as a control. Approximately ten days before conducting the experiments, puromycin is left out.
(§8) All treatments are performed in technical duplicates. […] AlamarBlue™ (ThermoFisher), a viability stain, is added and fluorescence measured in the PerkinElmer Envision HTS Multilabel Reader. The raw data are imported into and analyzed with the Boehringer Ingelheim proprietary software MegaLab (curve fitting based on the program PRISM, GraphPad Inc.).

KRAS G12C Ba/F3 cells = KRAS G12C Ba/F3 cells (Homo sapiens, UniProt P01116, G12C, cells depend on it); test: Ba/F3 proliferation assay, KRAS G12C; type: cell-based; settings: 72 h, AlamarBlue, read-out: KRAS G12C Ba/F3 IC50
Protocol: as §7, §8

[1] = test system: ERK phosphorylation in NCI-H358 (KRAS G12C); test: ERK phosphorylation assay (assay 1, NCI-H358); type: cell-based; settings: Homo sapiens; NCI-H358, assay 1, 1 h incubation; read-out: IC50 H358 pERK
Protocol: Low IC50 values in this assay setting are indicative of high potency of the compounds according to the invention. […]
The cells are incubated for 1 h at room temperature and then incubated overnight in an incubator at 37° C. and 5% CO2 in a humidified atmosphere. 60 nL compound solution (10 mM DMSO stock solution) is then added using a Labcyte Echo 550 device. […] After 20 min of incubation at room temperature with shaking, 6 μL of each lysate sample is transferred to a 384-well Proxiplate and analyzed for pERK (Thr202/Tyr204) with the AlphaLISA SureFire Ultra pERK1/2 (Thr202/Tyr204) Assay Kit. 3 μL Acceptor Mix and 3 μL Donor Mix are added under subdued light and incubated for 2 h at room temperature in the dark, before the signal is measured on a PerkinElmer Envision HTS Multilabel Reader. The raw data are imported into and analyzed with the Boehringer Ingelheim proprietary software MegaLab (curve fitting based on the program PRISM, GraphPad Inc.).

[2] = Solubility measurement (DMSO solution precipitation method); type: physicochemical; settings: aqueous buffer, kinetic from dmso stock
Protocol: The DMSO solution is diluted with an aqueous medium (McIlvaine buffer with pH=4.5 or 6.8) to a final concentration of 250 μM. After 24 h of shaking at ambient temperature a potentially formed precipitate is removed by filtration. The concentration of the test compound in the filtrate is determined by LC-UV methods by calibrating the signal to the signal of a reference solution with complete dissolution of the test compound in acetonitrile/water (1:1) with known concentration.

KRAS (G12V) and SOS1 = molecular target: T3, KRAS (G12V) and SOS1 (Homo sapiens, UniProt P01116, C118S/G12V); test: KRAS::SOS1 AlphaScreen binding assay, KRAS G12V
T3 construct: KRAS (G12V) 1-169, N-terminal 6His-tag for purification; 6His (N, cleaved yes); TEV cleavage site
Protocol: as §1, §2, §3, §4, §5, §6

KRAS G12V Ba/F3 cells = KRAS G12V Ba/F3 cells (Homo sapiens, UniProt P01116, G12V, cells depend on it); test: Ba/F3 proliferation assay, KRAS G12V; type: cell-based; settings: 72 h, AlamarBlue, read-out: KRAS G12V Ba/F3 IC50
Protocol: as §7, §8

[3] = Metabolic (microsomal) stability assay, HLM; type: in vitro ADME; settings: human liver microsomes, 1 μM, predicted clearance as percent of liver blood flow
Protocol: The metabolic degradation of the test compound is assayed at 37° C. with pooled liver microsomes (mouse (MLM), rat (RLM) or human (HLM)). The final incubation volume of 48 μL per time point contains TRIS buffer (pH 7.5; 0.1 M), magnesium chloride (6.5 mM), microsomal protein (0.5 mg/mL for mouse/rat, 1 mg/mL for human specimens) and the test compound at a final concentration of 1 μM. Following a short preincubation period at 37° C., the reactions are initiated by addition of 12 μL beta-nicotinamide adenine dinucleotide phosphate, reduced form (NADPH, 10 mM) and terminated by transferring an aliquot into solvent after different time points (0, 5, 15, 30, 60 min). Additionally, the NADPH-independent degradation is monitored in incubations without NADPH, terminated at the last time point by addition of acetonitrile. The quenched incubations are pelleted by centrifugation (4,000 rpm, 15 min). An aliquot of the supernatant is assayed by LC-MS/MS to quantify the concentration of parent compound in the individual samples.
In vitro intrinsic clearance (CLint, in vitro) is calculated from the time course of the disappearance of the test drug during the microsomal incubation. Each plot is fitted to the first-order elimination rate constant as C(t)=C0*exp(−ke*t), where C(t) and C0 are the concentration of unchanged test drug at incubation time t and that at preincubation and ke is the disappearance rate constant of the unchanged drug. Subsequently, CLint, in vitro (μL min^−1·amount protein) values are converted to predicted CLint, in vivo (mL min^−1·kg^−1) from incubation parameters according to the equation CLint, in vivo=CLint, in vitro×(incubation volume (ml)/amount protein (mg))×(amount protein (mg)/g liver tissue)×(liver weight/body wt.). For better across species comparison the predicted clearance is expressed as percent of the liver blood flow [% QH](mL min^−1·kg^−1) in the individual species. In general, high stability (corresponding to low % QH) of the compounds across species is desired.

[4] = McIlvaine buffer pH 4.5, 24 h, read-out: solubility pH 4.5
[5] = McIlvaine buffer pH 6.8, 24 h, read-out: solubility pH 6.8

KRAS G12C Ba/F3 cells, sequence (P01116 whole entry G12C): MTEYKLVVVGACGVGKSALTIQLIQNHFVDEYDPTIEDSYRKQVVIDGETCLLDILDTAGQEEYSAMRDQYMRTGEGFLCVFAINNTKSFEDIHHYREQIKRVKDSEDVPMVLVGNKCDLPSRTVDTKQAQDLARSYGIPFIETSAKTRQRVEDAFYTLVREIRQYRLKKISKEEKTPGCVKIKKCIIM
T1 sequence (P01116 1-169 isoform P01116-2 G12D): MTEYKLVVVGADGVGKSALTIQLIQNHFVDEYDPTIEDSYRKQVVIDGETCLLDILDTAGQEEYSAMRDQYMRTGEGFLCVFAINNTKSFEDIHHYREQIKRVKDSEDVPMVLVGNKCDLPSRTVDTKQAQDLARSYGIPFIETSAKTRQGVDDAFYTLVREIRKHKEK
T2 sequence (P01116 1-169 isoform P01116-2 G12C/C51S/C80L/C118S): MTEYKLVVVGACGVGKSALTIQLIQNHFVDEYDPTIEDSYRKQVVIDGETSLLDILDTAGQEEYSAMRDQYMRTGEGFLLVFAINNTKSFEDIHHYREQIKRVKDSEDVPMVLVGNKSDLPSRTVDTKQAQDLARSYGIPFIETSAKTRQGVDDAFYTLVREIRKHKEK
KRAS G12D Ba/F3 cells, sequence (P01116 whole entry G12D, canonical isoform): as the sequence (P01116 whole entry G12C) above, with C12D counted along it
T3 sequence (P01116 1-169 isoform P01116-2 G12V/C118S): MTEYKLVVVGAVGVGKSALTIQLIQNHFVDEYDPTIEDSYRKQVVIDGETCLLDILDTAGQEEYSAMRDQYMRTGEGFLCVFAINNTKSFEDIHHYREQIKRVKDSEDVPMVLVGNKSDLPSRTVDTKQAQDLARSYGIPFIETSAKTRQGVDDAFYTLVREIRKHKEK
KRAS G12V Ba/F3 cells, sequence (P01116 whole entry G12V): as the sequence (P01116 whole entry G12C) above, with C12V counted along it

Row | IC50 (KRAS (G12D) and SOS1) | IC50 (KRAS (G12C) and SOS1) | GI50 (KRAS G12D Ba/F3 cells) | GI50 (KRAS G12C Ba/F3 cells) | IC50 [1] | solubility at 24 h [2, 4] | solubility at 24 h [2, 5] | IC50 (KRAS (G12V) and SOS1) | GI50 (KRAS G12V Ba/F3 cells) | HLM QH [3] | Structure (SMILES)
1 | 2 nM | 4 nM | 108 nM | 105 nM | 19 nM | > 110 µg/mL | > 110 µg/mL |  |  |  | C[C@H](Oc1ccnc(-c2cc([C@@]3(C)CCCc4sc(N)c(C#N)c43)on2)n1)[C@@H]1CCCN1C [Example V-24]
2 | 3 nM | 6 nM | 214 nM | 409 nM | 24 nM | > 100 µg/mL | 82 µg/mL (≈ 162 µM) | 5 nM | 516 nM | >95% | C[C@H]1CN(CC2CC2)CCCN1c1nccc(-c2noc([C@@]3(C)CCCc4sc(N)c(C#N)c43)n2)n1 [Example V-3]
3 | 9 nM | 14 nM | 961 nM | 940 nM | 100 nM | > 110 µg/mL | > 100 µg/mL | 11 nM | 6060 nM |  | C[C@H](Oc1ccnc(-c2cc([C@@]3(C)CCCc4sc(N)c(C#N)c43)no2)n1)[C@@H]1CCCN1C [Example V-25]
4 | 2 nM | 7 nM | 79 nM | 95 nM |  | > 100 µg/mL | 95 µg/mL (≈ 193 µM) |  |  |  | CC(C)N1CCCN(c2nccc(-c3cc([C@@]4(C)CCCc5sc(N)c(C#N)c54)on3)n2)[C@@H](C)C1 [Example V-26]
